Data reported in PMC9764189 (The Journal of Biological Chemistry, 2022).
Like-named read-outs stand apart in the source and are kept apart here.

Tests used:
MR1 = MR1 (Homo sapiens, UniProt Q95460); assay: biochemical; assay type: binding; conditions: for IC50: IC50, 10 nM JYM20, 100 nM MR1-empty, 25 °C, pH 7.5; for Binder category (ligand affinity for MR1): category by IC50
Chain of MR1 (Q95460 23-302 limits assumed): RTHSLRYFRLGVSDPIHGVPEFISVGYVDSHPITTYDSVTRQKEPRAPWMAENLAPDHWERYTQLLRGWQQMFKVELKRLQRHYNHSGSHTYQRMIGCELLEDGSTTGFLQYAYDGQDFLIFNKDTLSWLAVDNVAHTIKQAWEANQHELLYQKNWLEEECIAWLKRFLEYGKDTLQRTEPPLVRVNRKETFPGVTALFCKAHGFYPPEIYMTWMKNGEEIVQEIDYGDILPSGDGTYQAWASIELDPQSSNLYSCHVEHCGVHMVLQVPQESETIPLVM
Chain of MR1 (P61769 21-119 partner): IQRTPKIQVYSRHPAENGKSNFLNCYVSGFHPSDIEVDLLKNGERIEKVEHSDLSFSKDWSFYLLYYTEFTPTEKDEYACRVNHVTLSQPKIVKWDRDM

| Structure (SMILES) | IC50 (MR1) [µM] | Upregulation of surface MR1 (C1R.MR1 cells; 3 h incubation) | Upregulation of surface MR1 (C1R.MR1 cells; 16 h incubation) | Binder category (ligand affinity for MR1) (MR1) | Concentration at which MR1 was upregulated significantly (C1R.MR1 cells; 3 h incubation, versus DMSO) [µM] |
| --- | --- | --- | --- | --- | --- |
| O=Cc1cccc(C(=O)O)c1O [3-F-SA, 3-formylsalicylic acid] | 0.563 | – | – | – | – |
| O=C(O)CCNC(=O)c1cc(=O)[nH]c(=O)[nH]1 [DB28, 3-[(2,6-dioxo-1,2,3,6-tetrahydropyrimidin-4-yl)formamido]propanoic acid] | 20 | – | – | – | – |
| O=C(O)Cc1ccccc1Nc1c(Cl)cccc1Cl [DCF, diclofenac] | 2600 | – | – | – | – |
| CCOc1cc(C=O)ccc1O [Ethylvanillin, ethylvanillin] | 325 | upregulated | no noticeable upregulation | – | – |
| COc1ccc(O)c(C=O)c1 [HMB, 2-hydroxy-5-methoxybenzaldehyde] | 775 | – | – | weak (weak (IC50 > 100 μM)) | – |
| COc1cc(C=O)ccc1O [Vanillin, vanillin] | 325 | upregulated | modest increase | weak (weak (IC50 > 100 μM)) | 10 |
